From US20260048047A1, “SMALL-MOLECULE ACTIVATORS OF MYCOBACTERIUM TUBERCULOSIS ADENYLYL CYCLASE” (priority 2022, published 2026)
≈ marks a conversion by molar mass, not a printed value. Entries after “also recorded” stand apart in the source; their conditions may differ. Like-named read-outs stand apart in the source and are kept apart here.

Experiments:
M. tuberculosis = assay: Extracellular activity against M. tuberculosis in cholesterol media (Alamar Blue reduction assay); format: cell-based, Mycobacterium tuberculosis
[1] = system: non-replicating M. tuberculosis; assay: Hu Coats 100-day old culture model; details: for CFU reduction versus PB: added to PB; for Cidal activity compared to the NixTB combination: with Pretomanid and Bedaquiline
Mtb [2] = format: in vivo, BALB/c mice; details: for Reduction in lung CFUs: mouse, in vivo
Mtb [3] = assay: Checkerboard combination assay with known anti-TB drugs (FIC index); format: cell-based, Mycobacterium tuberculosis; details: nine anti-TB drugs
Text: Combination Testing of mCLB073 with Known Anti-TB Drugs
To test for interactions between mCLB073 and known anti-tubercular drugs in combination in an in vitro growth assay, a checkerboard assay to test for interactions between mCLB073 and drugs with known anti-TB activity using Alamar Blue as a viability marker (Lechartier et al., 2012) was used. Drug combinations were categorized based on fractional inhibitory concentration (FIC) index of FIC≤0.5 as synergistic, 0.5<FIC≤1 as additive, 1<FIC≤4 as no interaction and FIC ≥4 as antagonism (Hall et al., 1983).
Performed were synergy studies between mCLB073 and nine anti-TB drugs: Moxifloxacin (MOXI), Isoniazid (INH), Rifampicin (RIF), Streptomycin (STR), Levofloxacin (LEV), Linezolid (LIN), Ethionamide (ETH), Pretomanid (PA-824), and Bedaquiline (BDQ). A checkerboard titration in a microtiter plate was used as previously described (Hsieh et al., 1993).

Mtb H37Ra = details: read-out: IC50 against Mtb H37Ra in cholesterol media
[4] = system: Mtb H37Rv (Mtb-lux) inside PMA-differentiated THP-1 cells; assay: Intramacrophage activity in THP-1 cells; format: cell-based, Mycobacterium tuberculosis
Mtb H37Rv = assay: MIC determination in Mtb H37Rv (MABA, 7H12-Cholesterol media); format: cell-based; details: Mycobacterium tuberculosis, two batches
Protocol: MIC Determination in Mtb H37Rv
The minimum inhibitory concentration (MIC) of the test compounds were determined using ten-point, two-fold serial dilutions in 7H12-Cholesterol media using Microdilution Alamar Blue Assay (MABA) as previously described (Cho et al., 2015; VanderVen et al., 2015). Briefly, Mycobacterial cells at the mid-logarithmic phase of growth were diluted (1:1,000). Twenty μl of this dilution was added to each well containing 2-fold serially diluted test compounds and incubated for 7 days at 37° C. Alamar Blue (Invitrogen) reagent (4 μL per well) was added along with 20% Tween 80 (2.5 μL per well, Sigma Aldrich) to evaluate bacterial cell viability. Plates were read 24 h after adding Alamar Blue at absorbance 570 nm with a reference wavelength of 600 nm.

[5] = system: Mtb inside J774.1 macrophages; assay: Intramacrophage activity in J774.1 cells; format: cell-based, Mycobacterium tuberculosis
[6] = Plasma exposure over the cholesterol-media EC50 after oral dosing in mice; format: in vivo; details: dosed orally in mice
Mtb in macrophages = assay: Inhibition of Mtb replication in macrophages (intramacrophage EC50); format: cell-based, Mycobacterium tuberculosis; details: Table S2; read-out: Macrophages EC50
[7] = Mycobacterium tuberculosis, 240 h, 7H12-Cholesterol media, 10 days, read-out: Cholesterol broth: alamar blue--EC50

Q: For `CCN(CC)C(=O)c1cn(C2CCCN(C(=O)Cc3nonc3C)C2)nn1` (centres unmarked) [Compound 245, N,N-diethyl-1-(1-(2-(4-methyl-1,2,5-oxadiazol-3-yl)acetyl)piperidin-3-yl)-1H-1,2,3-triazole-4-carboxamide], which EC50 (M. tuberculosis; [7]) is on record?
A: > 10 µM

Q: For `Cc1nonc1CC(=O)N1CCCC(n2cc(C(=O)NCCO)nn2)C1` (centres unmarked) [Compound 246, N-(2-hydroxyethyl)-1-(1-(2-(4-methyl-1,2,5-oxadiazol-3-yl)acetyl)piperidin-3-yl)-1H-1,2,3-triazole-4-carboxamide], which EC50 (M. tuberculosis; [7]) is on record?
A: > 10 µM

Q: Which EC50 (M. tuberculosis; [7]) does the source give for `Cc1nonc1CC(=O)N1CCC2(CC1)CC(n1nnc(-c3ccc(F)cc3)n1)C2` [Compound 247, 1-(2-(5-(4-fluorophenyl)-2H-tetrazol-2-yl)-7-azaspiro[3.5]nonan-7-yl)-2-(4-methyl-1,2,5-oxadiazol-3-yl)ethan-1-one] here?
A: 1.25 µM

Q: Which EC50 (M. tuberculosis; [7]) does the source give for `Cc1nonc1CC(=O)N1CCCC(n2nnc(-c3ccc(F)cc3)n2)C1` (centres unmarked) [Compound 248, 1-(3-(5-(4-fluorophenyl)-2H-tetrazol-2-yl)piperidin-1-yl)-2-(4-methyl-1,2,5-oxadiazol-3-yl)ethan-1-one] here?
A: > 10 µM

Q: For `Cc1nonc1CC(=O)N1CC2CCC(C1)C2c1nc(-c2ccc(F)cc2)no1` (centres unmarked) [Compound 249, 1-(8-(3-(4-fluorophenyl)-1,2,4-oxadiazol-5-yl)-3-azabicyclo[3.2.1]octan-3-yl)-2-(4-methyl-1,2,5-oxadiazol-3-yl)ethan-1-one], which EC50 (M. tuberculosis; [7]) is on record?
A: 1.29 µM

Q: For `Cc1nonc1CC(=O)N1CCN(c2ncn(-c3ccc(F)cc3)n2)CC1` [Compound 250, 1-(4-(1-(4-fluorophenyl)-1H-1,2,4-triazol-3-yl)piperazin-1-yl)-2-(4-methyl-1,2,5-oxadiazol-3-yl)ethan-1-one], which EC50 (M. tuberculosis; [7]) is on record?
A: > 10 µM

Q: Which EC50 (M. tuberculosis; [7]) does the source give for `Cc1nonc1NC(=O)C1CCC(c2nc(-c3ccc(F)cc3)no2)CC1` (centres unmarked) [Compound 251, 4-(3-(4-fluorophenyl)-1,2,4-oxadiazol-5-yl)-N-(4-methyl-1,2,5-oxadiazol-3-yl)cyclohexane-1-carboxamide] here?
A: > 10 µM

Q: For `Cc1nonc1CC(=O)N1CCC(c2cnc(-c3ccc(F)cc3)nc2)CC1` [Compound 252, 1-(4-(2-(4-fluorophenyl)pyrimidin-5-yl)piperidin-1-yl)-2-(4-methyl-1,2,5-oxadiazol-3-yl)ethan-1-one], which EC50 (M. tuberculosis; [7]) is on record?
A: 2.91 µM

Q: For `Cc1nonc1CC(=O)N1CCC(c2ncc(-c3ccc(F)cc3)cn2)CC1` [Compound 253, 1-(4-(5-(4-fluorophenyl)pyrimidin-2-yl)piperidin-1-yl)-2-(4-methyl-1,2,5-oxadiazol-3-yl)ethan-1-one], which EC50 (M. tuberculosis; [7]) is on record?
A: > 10 µM

Q: With `Cc1cccc(OC2CCN(C(=O)Cc3nonc3C)CC2)c1C` [Compound 254, 1-(4-(2,3-dimethylphenoxy)piperidin-1-yl)-2-(4-methyl-1,2,5-oxadiazol-3-yl)ethan-1-one] as the compound, how does the EC50 (M. tuberculosis; [7]) read?
A: > 10 µM

Q: Which EC50 (M. tuberculosis; [7]) does the source give for `Cc1nonc1CC(=O)N1CCC(c2ccc(-c3ccc(F)cc3)nn2)CC1` [Compound 255, 1-(4-(6-(4-fluorophenyl)pyridazin-3-yl)piperidin-1-yl)-2-(4-methyl-1,2,5-oxadiazol-3-yl)ethan-1-one] here?
A: > 10 µM

Q: Which EC50 (M. tuberculosis; [7]) does the source give for `Cc1nonc1CC(=O)N1CCCC(c2nc(-c3ccc(F)cc3)no2)C1` (centres unmarked) [Compound 256, 1-(3-(3-(4-fluorophenyl)-1,2,4-oxadiazol-5-yl)piperidin-1-yl)-2-(4-methyl-1,2,5-oxadiazol-3-yl)ethan-1-one] here?
A: > 10 µM

Q: For `Cc1nonc1CC(=O)N1CC(c2nc(-c3ccc(F)cc3)no2)C1` [Compound 257, 1-(3-(3-(4-fluorophenyl)-1,2,4-oxadiazol-5-yl)azetidin-1-yl)-2-(4-methyl-1,2,5-oxadiazol-3-yl)ethan-1-one], which EC50 (M. tuberculosis; [7]) is on record?
A: > 10 µM

Q: With `Cc1nonc1CC(=O)N1CCC2(CCC2n2nnc(-c3ccc(F)cc3)n2)CC1` (centres unmarked) [Compound 258, 1-(1-(5-(4-fluorophenyl)-2H-tetrazol-2-yl)-7-azaspiro[3.5]nonan-7-yl)-2-(4-methyl-1,2,5-oxadiazol-3-yl)ethan-1-one] as the compound, how does the EC50 (M. tuberculosis; [7]) read?
A: > 25 µM

Q: With `CC(=O)NC[C@H]1CN(c2ccc(N3CCOCC3)c(F)c2)C(=O)O1` [LIN, Linezolid, reference compound] as the compound, how does the “CFU reduction versus PB” value ([1]; 50 μM) read?
A: superior CFU reduction

Q: Which “Decrease of extent of lung pathology” value (Mtb [2]; BALB/c, 30 mg/kg oral once-daily, weeks 4-8) does the source give for `Cn1ncnc1CC(=O)N1CCC(c2nc(-c3ccc(Cl)c(Cl)c3)no2)CC1` [mCLB073, 1-(4-(3-(3,4-dichlorophenyl)-1,2,4-oxadiazol-5-yl)-1-piperidinyl)-2-(2-methyl-2H-1,2,4-triazol-3-yl)-1-ethanone] here?
A: ~45%

Q: What about the “Lung bacterial burden when added to sub-optimal rifampicin” value (Mtb [2]; BALB/c, 30 mg/kg plus sub-optimal dose of rifampicin) of the same compound?
A: did not increase the bacterial burden

Q: What about the “Reduction in lung CFUs” value (Mtb [2]; 5 mg/kg) of the same compound?
A: ~0.4 log10

Q: And the “Reduction in lung CFUs” value (Mtb [2]; po, 30 mg/kg)?
A: ~0.4 log10

Q: What about the “Antagonism with known anti-TB drugs” value (Mtb [3]) of the same compound?
A: did not display any antagonism

Q: What about the IC50 (Mtb H37Ra) of the same compound?
A: 0.0301 µM

Q: And the “Sinf (maximum inhibition), THP-1” value [4]?
A: 76.8%

Q: And the EC50 ([4]; Mycobacterium tuberculosis, H37RV, THP-1, 72 h, luminescence, day 3, read-out: EC50, growth of Mtb inside PMA-differentiated THP-1 cells)?
A: 0.04 µM

Q: What about the MIC90 (Mtb H37Rv) of the same compound?
A: 0.28 µM (≈ 0.118 µg/mL)

Q: And the “Sinf (maximum inhibition), J774.1” value [5]?
A: 42.1%

Q: What about the EC50 ([5]; Mycobacterium tuberculosis, J774.1, 72 h, luminescence, day 3, read-out: EC50, growth of Mtb inside J774.1 macrophages) of the same compound?
A: 0.05 µM

Q: What about the “Plasma exposure over the EC50 identified in cholesterol media” value [6] of the same compound?
A: at least 24 hours

Q: And the “Efficacy when tested individually” value ([1]; 100-day-old culture, alone)?
A: no efficacy

Q: What about the “Activity in combination versus NixTB combination” value ([1]; Pretomanid 20.87 μM, Bedaquiline 2.25 μM, test drug 20, 8, 1 μM) of the same compound?
A: comparable

Q: And the “CFU reduction versus PB” value ([1]; 50 μM)?
A: superior CFU reduction

Q: And the “Cidal activity compared to the NixTB combination” value ([1]; 50 μM)?
A: complete sterilization; also recorded: two log units better

Q: What about the “Cidal activity compared to the NixTB combination” value ([1]; all compounds at 20 μM) of the same compound?
A: one-log improvement

Q: Which EC50 (M. tuberculosis; Table S2, read-out: Cholesterol EC50) does the source give for `Cn1ncnc1CC(=O)N1[C@@H]2CC(c3nc(-c4ccc(Cl)c(Cl)c4)no3)C[C@H]1C2` (some centres unmarked) [mCLF025] here?
A: > 30 µM

Q: And the “Potency of trans isomer in words” value (M. tuberculosis; Table S2 assays)?
A: inactive

Q: What about the EC50 (Mtb in macrophages) of the same compound?
A: > 30 µM
